Assay results taken from patent US6380245B1, “Antibiotics TKR1912-I and TKR1912-II and process for producing the same” (Takara Shuzo Co., Ltd., priority 1995, dated 2002).
≈ marks a conversion by molar mass, not a printed value. Read-outs that look alike come from different tables or passages of the source.

How the values were obtained:
[1] = system: Aspergillus fumigatus TIMM1776; experiment: Antifungal spectrum, liquid medium dilution method; assay type: cell-based
Description: (§1) The antifungal spectra of the above TKR1912-I and TKR1912-II against various microorganisms were determined. Using the liquid medium dilution method, the concentration causing a substantially complete inhibition of fungal growth was determined as minimal inhibitory concentration (μg/ml). Moreover, the minimal concentration (μg/ml) causing partial growth inhibition was determined and the results are presented in parentheses in Table 2. In the table, YNBG stands for YNBG medium comprising 0.67% of yeast nitrogen base (Difco) and 1.0% of glucose and BHI stands for BHI medium comprising brain-heart infusion bouillon (Nissui Pharmaceutical).

[2] = system: Candida albicans TIMM0136; experiment: Antifungal spectrum, liquid medium dilution method; assay type: cell-based
Description: as §1

[3] = system: Cryptococcus neoformans TIMM0354; experiment: Antifungal spectrum, liquid medium dilution method; assay type: cell-based
Description: as §1

[4] = system: Candida kefyr TIMM0301; experiment: Antifungal spectrum, liquid medium dilution method; assay type: cell-based; conditions: for MIC: Kluyveromyces marxianus
Description: as §1

[5] = system: ICR mice; experiment: Toxicity after intraperitoneal administration to ICR mice; assay type: in vivo; conditions: 50 mg/kg
[6] = Solubility in solvents; assay type: physicochemical
[7] = Aspergillus fumigatus TIMM1776, BHI medium
[8] = Candida albicans TIMM0136, YNBG medium
[9] = Candida kefyr TIMM0301, YNBG medium

Row | Structure (SMILES) | minimal concentration causing partial growth inhibition (in parentheses) [1, 7] | MIC ([1]; Aspergillus fumigatus, TIMM1776, read-out: Minimal inhibitory concentration (substantially complete inhibition of fungal growth)) | minimal concentration causing partial growth inhibition (in parentheses) [2, 8] | MIC ([2]; Candida albicans, TIMM0136, read-out: Minimal inhibitory concentration (substantially complete inhibition of fungal growth)) | minimal concentration causing partial growth inhibition (in parentheses) ([3]; Cryptococcus neoformans TIMM0354, YNBG medium) | MIC ([3]; Cryptococcus neoformans, TIMM0354, read-out: Minimal inhibitory concentration (substantially complete inhibition of fungal growth)) | minimal concentration causing partial growth inhibition (in parentheses) [4, 9] | MIC ([4]; TIMM0301, read-out: Minimal inhibitory concentration (substantially complete inhibition of fungal growth)) | toxic signs [5] | solubility in hexane [6] | solubility in methanol, chloroform, and water [6] | MIC ([1]; Aspergillus fumigatus TIMM1776, BHI medium, read-out: Minimal inhibitory concentration (substantially complete inhibition of fungal growth)) | MIC ([2]; Candida albicans TIMM0136, YNBG medium, read-out: Minimal inhibitory concentration (substantially complete inhibition of fungal growth)) | MIC ([3]; Cryptococcus neoformans TIMM0354, YNBG medium, read-out: Minimal inhibitory concentration (substantially complete inhibition of fungal growth)) | MIC ([4]; Candida kefyr TIMM0301, YNBG medium, read-out: Minimal inhibitory concentration (substantially complete inhibition of fungal growth))
1 | CCCCCCCC/C=C/CC/C=C/C1CC(C(=O)O)C(CC(=O)O)(C(=O)OC(C(=O)O)C(CC(=O)O)C(=O)O)O1 (stereo not drawn) [TKR1912-II] | (25) μg/ml | > 100 µg/mL | (0.78) μg/ml | 3.13 µg/mL (≈ 5.35 µM) | (6.25) μg/ml | > 100 µg/mL | (1.56) μg/ml | 3.13 µg/mL (≈ 5.35 µM) | no toxic signs | practically insoluble | soluble | – | – | – | –
2 | CCCCCCCCCC/C=C/C1CC(C(=O)O)C(CC(=O)O)(C(=O)OC(C(=O)O)C(CC(=O)O)C(=O)O)O1 (stereo not drawn) [TKR1912-I] | (100) μg/ml | – | (1.56) μg/ml | – | – | – | (6.25) μg/ml | – | no toxic signs | practically insoluble | soluble | > 100 µg/mL | 3.13 µg/mL (≈ 5.6 µM) | 6.25 µg/mL (≈ 11.2 µM) | 12.5 µg/mL (≈ 22.4 µM)
